Compound | melting point
Cc1oc2ccc(C(=O)NS(=O)(=O)c3ccccc3)cc2c1Cc1ccc(Cl)cc1Cl [Example 30-2, 5-(benzenesulfonylcarbamoyl)-3-(2,4-dichlorobenzyl)-2-methylbenzo[b]furan] | 208.5 to 209.5 °C
CCCCCS(=O)(=O)NC(=O)c1cc(C)cc2c(C)c(Cc3ccc(Cl)cc3Cl)oc12 [Example 31-1, 2-(2,4-dichlorobenzyl)-3,5-dimethyl-7-(1-n-pentanesulfonylcarbamoyl)benzo[b]furan] | 164 to 165.5 °C
Cc1cc(C(=O)NS(=O)(=O)c2ccccc2)c2oc(Cc3ccc(Cl)cc3Cl)c(C)c2c1 [Example 31-2, 7-(benzenesulfonylcarbamoyl)-2-(2,4-dichlorobenzyl)-3,5-dimethylbenzo[b]furan] | 214 to 215 °C
CCCCCS(=O)(=O)NC(=O)c1ccc2sc(C)c(Cc3ccc(Cl)cc3Cl)c2c1 [Example 37, 3-(2,4-dichlorobenzyl)-2-methyl-5-(1-n-pentanesulfonylcarbamoyl)benzo[b]thiophene] | 158.5 to 159.3 °C
CCCCCS(=O)(=O)NC(=O)c1cccc2c(CC)c(Cc3ccc(Cl)cc3Cl)sc12 [Example 38-1, 2-(2,4-dichlorobenzyl)-3-ethyl-7-(1-n-pentanesulfonylcarbamoyl)benzo[b]thiophene] | 176 to 178 °C
CCCCS(=O)(=O)NC(=O)c1ccc2nnn(Cc3ccc(Cl)cc3Cl)c2c1 [Example 40, 6-(1-n-butanesulfonyl-carbamoyl)-1-(2,4-dichlorobenzyl)benzotriazole] | 158 to 160 °C
CCCCS(=O)(=O)NC(=O)c1ccc2c(=O)n(Cc3ccc(Cl)cc3Cl)cnc2c1 [Example 44, 7-(1-n-butanesulfonyl-carbamoyl)-3-(2,4-dichlorobenzyl)-4(3H)-quinazolinone] | 245 to 247 °C
CCCCS(=O)(=O)NC(=O)c1ccc2c(=O)n(C)c(Cc3ccc(Cl)cc3Cl)nc2c1 [Example 45, 7-(1-n-butanesulfonyl-carbamoyl)-2-(2,4-dichlorobenzyl)-3-methyl-4(3H)-quinazolinone] | 244 to 246 °C
Cc1nc(=O)c2ccc(C(=O)NS(=O)(=O)c3ccccc3)cc2n1Cc1ccc(Cl)cc1Cl [Example 47-2, 7-(benzenesulfonylcarbamoyl)-1-(2,4-dichlorobenzyl)-2-methyl-4(1H)-quinazolinone] | 214 to 216 °C
Cc1nc2ccc(C(=O)NS(=O)(=O)c3ccccc3)cn2c1Cc1ccc(Cl)cc1Cl [Example 56, 6-(benzenesulfonylcarbamoyl)-3-(2,4-dichlorobenzyl)-2-methylimidazo[1,2-a]pyridine] | 308 to 310 °C
Cc1nc2ccc(C(=O)NS(=O)(=O)c3ccc(Br)s3)nc2n1Cc1ccc(Cl)cc1Cl [Example 65-5, 5-((5-bromothiophen-2-yl)sulfonylcarbamoyl)-3-(2,4-dichlorobenzyl)-2-methyl-3H-imidazo[4,5-b]pyridine] | 168 to 169 °C

The next lines start with the values.

melting point | Compound
181 to 183 °C | CCc1c(Cc2ccc(Cl)cc2Cl)sc2c(C(=O)NS(=O)(=O)c3ccccc3)cccc12 [Example 38-2, 7-(benzenesulfonylcarbamoyl)-2-(2,4-dichlorobenzyl)-3-ethylbenzo[b]thiophene]
358 to 360 °C | CCCCS(=O)(=O)NC(=O)c1ccc2c(c1)n(Cc1ccc(Cl)cc1Cl)c(=O)n2C [Example 39, 6-(1-n-butanesulfonylcarbamoyl)-1-(2,4-dichlorobenzyl)-3-methyl-2-benzimidazolone]
212 to 214 °C | CCCCS(=O)(=O)NC(=O)c1ccc2c(=O)n(CC)c(=O)n(Cc3ccc(Cl)cc3Cl)c2c1 [Example 42, 7-(1-n-butanesulfonyl-carbamoyl)-1-(2,4-dichlorobenzyl)-3-ethyl-2,4(1H,3H)-quinazolinedione]
212 to 214 °C | CCCCS(=O)(=O)NC(=O)c1ccc2c(=O)n(Cc3ccc(Cl)cc3Cl)c(=O)n(C)c2c1 [Example 43, 7-(1-n-butanesulfonyl-carbamoyl)-3-(2,4-dichlorobenzyl)-1-methyl-2,4(1H,3H)-quinazolinedione]
168 to 170 °C | CCCCCS(=O)(=O)NC(=O)c1ccc2c(=O)nc(C)n(Cc3ccc(Cl)cc3Cl)c2c1 [Example 47-1, 1-(2,4-dichlorobenzyl)-2-methyl-7-(1-n-pentanesulfonylcarbamoyl)-4(1H)-quinazolinone]
223 to 225 °C | CCCCS(=O)(=O)NC(=O)c1ccc2nc(C)c(=O)n(Cc3ccc(Cl)cc3Cl)c2c1 [Example 49, 7-(1-n-butanesulfonyl-carbamoyl)-1-(2,4-dichlorobenzyl)-3-methyl-2(1H)-quinoxalinone]
243 to 246 °C | CCCCS(=O)(=O)NC(=O)c1ccc2c(c1)n(Cc1ccc(Cl)cc1Cl)c(=O)c(=O)n2C [Example 50, 7-(1-n-butanesulfonyl-carbamoyl)-1-(2,4-dichlorobenzyl)-4-methyl-2,3-(1H, 4H)-quinoxalinedione]
192 to 194 °C | Cc1nc2ccc(C(=O)NS(=O)(=O)/C=C/c3ccccc3)nc2n1Cc1ccc(Cl)cc1Cl [Example 65-3, (E)-3-(2,4-dichlorobenzyl)-2-methyl-5-[(2-phenylethenyl)sulfonylcarbamoyl]-3H-imidazo[4,5-b]pyridine]
206 to 207 °C | Cc1nc2ccc(C(=O)NS(=O)(=O)c3ccc(Cl)s3)nc2n1Cc1ccc(Cl)cc1Cl [Example 65-4, 5-((5-chlorothiophene-2-yl)sulfonylcarbamoyl)-3-(2,4-dichlorobenzyl)-2-methyl-3H-imidazo[4,5-b]pyridine]
204 to 205 °C | Cc1nc2ccc(C(=O)NS(=O)(=O)/C=C/c3ccccc3)nc2n1Cc1ccc(Br)cc1Cl [Example 66-1, (E)-3-(4-bromo-2-chlorobenzyl)-2-methyl-5-[(2-phenylethenyl)sulfonylcarbamoyl]-3H-imidazo[4,5-b]pyridine]
216 to 218 °C | Cc1nc2ccc(C(=O)NS(=O)(=O)/C=C/c3ccccc3)nc2n1Cc1ccc(-c2ccccc2)cc1Cl [Example 67-2, (E)-3-(2-chloro-4-phenylbenzyl)-2-methyl-5-[(2-phenylethenyl)sulfonylcarbamoyl]-3H-imidazo[4,5-b]pyridine]
210 to 212 °C | Cc1nc2ccc(C(=O)NS(=O)(=O)c3ccc(Cl)s3)nc2n1Cc1ccc(-c2ccccc2)cc1Cl [Example 67-3, 3-(2-chloro-4-phenylbenzyl)-5-[(5-chlorothiophene-2-yl)sulfonylcarbamoyl]-2-methyl-3H-imidazo[4,5-b]pyridine]
205 to 207 °C | Cc1nc2ccc(C(=O)NS(=O)(=O)c3ccc(Br)s3)nc2n1Cc1ccc(-c2ccccc2)cc1Cl [Example 67-5, 5-[(5-bromothiophen-2-yl)sulfonylcarbamoyl]-3-(2-chloro-4-phenylbenzyl)-2-methyl-3H-imidazo[4,5-b]pyridine]
225 to 226 °C | Cc1nc2ccc(C(=O)NS(=O)(=O)c3ccccc3)nc2n1Cc1ccc(-c2cccs2)cc1Cl [Example 68, 5-(benzenesulfonylcarbamoyl)-3-[2-chloro-4-(thiophen-2-yl)benzyl]-2-methyl-3H-imidazo[4,5-b]pyridine]
215 to 217 °C | Cc1nc2ccc(C(=O)NS(=O)(=O)c3ccccc3)nc2n1Cc1ccc(-c2ccc(Cl)s2)cc1Cl [Example 69, 5-(benzenesulfonylcarbamoyl)-3-[2-chloro-4-(5-chlorothiophene-2-yl)benzyl]-2-methyl-3H-imidazo[4,5-b]pyridine]

— patent US6911469B2, “Sulfonamide compounds and pharmaceutical use thereof” (Fujisawa Pharmaceutical Co., Ltd., priority 1997, dated 2005)
